Laboratory results reported in patent US20090209644A1, “LIPOTOXICITY RELIEVING AGENT” (priority 2005, published 2009).
Read-outs that look alike come from different tables or passages of the source.

Tests used:
Min6 cells = experiment: Restoration of impaired insulin secretion in Min6 cells after palmitic acid load (Experimental Example 2); type: cell-based, mouse; details: Min6, 0.4 mM palmitic acid load 48 h, 20 mM glucose; for insulin secretion, % of normal group: normal group = 100%
Description: (1-1) Min6 cells suspended in DMEM medium (manufactured by Gibco) were seeded in a 24 well plate at 1.5×10^5 cells per well, and the cells were incubated overnight in 5% CO2 at 37° C. (1-2) To each well, palmitic acid was added to a concentration of 0.4 mM, and BSA not containing the fatty acid was added to a concentration of 0.5% (v/v), and the incubation was continued in 5% CO2 at 37° C. for 48 hours. (1-3) The cells were washed twice with PBS(−), and the incubation was continued in 5% CO2 at 37° C. for 48 hours in DMEM medium (manufactured by Sigma) after adding palmitic acid (palmitic acid group), oleic acid (oleic acid group), EPA (EPA group), or DHA (DHA group) at 50 μM, or in the absence of the fatty acid (control group). In the meanwhile, the Min6 cells cultured in the above (1-1) were incubated in the DMEM medium (manufactured by Sigma) for 48 hours as in the case of the above (1-2) but without adding the 0.4 mM palmitic acid (normal group), and these cells were washed twice with the PBS(−) and incubated in the DMEM medium (manufactured by Sigma) in the absence of the fatty acid in 5% CO2 at 37° C. for another 48 hours as in the case of the control group of the above (1-3) to prepare the sample (normal group). The stimulation with glucose was conducted by repeating the procedure of Experimental Example 1(2), and the sample that had been stimulated with 2.8 mM glucose and the sample that had been stimulated with 20 mM glucose were collected and the amount of insulin per mg of the protein were measured.

[1] = test system: Langerhans' islet (pancreatic β-cell); experiment: Glucose-stimulated insulin secretion of Langerhans' islet isolated from fed mice (Experimental Example 3); type: in vivo, mice (C57BL/6J); details: 20 mM glucose; for insulin secretion, % of control group: control = 100%
Excerpt: Male mice (C57BL/6J, 8 week old, purchased from Clea Japan, Inc.) were fed on fish meal free F1 (manufactured by Funabashi Farms Co., Ltd.) for 1 week, and the mice were divided into 4 groups each including 9 to 10 mice. The 4 groups of mice were freely fed for 28 days on (1) fish meal free F1 (control group), (2) fish meal free F1 containing 20% by weight of tripalmitic acid added (palmitic acid group), (3) F1 feed not containing any fish meal having 20% by weight of tripalmitic acid and 5% by weight of EPA-E added (the group of palmitic acid plus EPA), and (4) F1 feed not containing any fish meal having 5% by weight of EPA-E added (EPA group). Before the start of the experiment, on 14th day, and on the final day, blood was taken from orbital venous plexus after fasting for 16 hours. The serum was separated, and blood free fatty acid was enzymatically measured by using NEFA Test Wako (Wako Pure Chemical Industries, Ltd.). Langerhans' islet was isolated by way of density gradient method from the pancreas that had been treated with collagenase, and cultivated in 10% (v/v) fetal bovine serum (purchased from Iwai Chemicals Company) and RPM 11640 medium) supplemented with 1% by weight of penicillin streptomycin (manufactured by Sigma) in 5% CO2 at 37° C. for 2 hours. The glucose-stimulated insulin secretion was then evaluated according to the procedure described in Experimental Example 1-(2). The Langerhans' islet was washed with PBS(−) and vigorously shaked in […] of TNE buffer (0.1M Tris-HCl, pH 7.4, 2M NaCl, 10 mM EDTA) to prepare the cell lysate. 20 μL of this cell lysate was added to 100 μL of chromogenic solution (1.2 μL of Hoechst 33258 (manufactured by Wako Pure Chemical Industries, Ltd.) added to 1 mL of TNE buffer), and the reaction was allowed to proceed at room temperature for at least 8 hours, and the measurement was conducted by using an excitation wavelength of 350 nm and a measurement wavelength of 450 nm. Similar evaluation was conducted by using bovine thymus DNA (manufactured by Sigma) to prepare a calibration curve to thereby enable determination of the DNA amount. Amount of insulin per μg of the DNA of the Langerhans' islet was measured.

[2] = test system: Min6 cells from mouse pancreatic β-cell; experiment: Inhibition (prophylaxis) of lipotoxicity-impaired glucose-stimulated insulin secretion in Min6 cells (Experimental Example 1); type: cell-based; details: for insulin secretion (amount of insulin per mg of the protein): stimulated with 20 mM glucose
Description: Min6 cells from mouse pancreatic β-cell (provided by Dr. Miyazaki of Osaka University) suspended in DMEM medium (manufactured by GIBCO, purchased from Iwai Chemicals Company) were seeded in a 24 well plate at 1.5×10^5 cells per well, and the cells were incubated in 5% CO2 at 37° C. for 24 hours. The medium was replaced with DMEM medium (manufactured by Sigma) containing 0.5% (v/v) fatty acid free bovine serum albumin (hereinafter abbreviated as BSA) and 5.5 mM glucose, and incubated in 5% CO2 at 37° C. for 48 hours with or without (control group) one of the following fatty acids, 0.4 mM palmitic acid (palmitic acid group), 50 μM EPA (EPA group), or 0.4 mM palmitic acid and 50 μM EPA (the group of palmitic acid plus EPA). The supernatant was removed from the cell culture of (1), and the cells were washed twice with phosphate buffered saline (hereinafter abbreviated as PBS(−)), and after adding 500 μL of Krebs-Ringer-Bicarbonate-Hepes buffer (hereinafter abbreviated as KRBH buffer) containing 0.5% (v/v) fatty acid free BSA and 2.8 mM glucose, the incubated was continued in 5% CO2 at 37° C. for 1 hour. The supernatant was removed from the cell culture, and after adding 500 μL of KRBH buffer containing 0.5% (v/v) BSA and 2.8 mM glucose, the incubation was continued in 5% CO2 at 37° C. for 1 hour, and the supernatant was collected as the sample which had been stimulated with 2.8 mM glucose. Next, the cells were washed twice with PBS(−), and incubated in KRBH buffer containing 0.5% (v/v) BSA and 20 mM glucose in 5% CO2 at 37° C. for 1 hour. The supernatant was collected as the sample which had been stimulated with 20 mM glucose. The samples collected were evaluated for their insulin concentration by Levis insulin assay kit (manufactured by Shibayagi and purchased from Nakayama Co., Ltd.) and for their protein concentration by the method of […] (BCA kit), and determine the amount of insulin per mg of the protein.

Langerhans' islet = experiment: Combined use of EPA and tolbutamide on palmitic acid-suppressed insulin secretion of isolated Langerhans' islet (Experimental Example 4); type: cell-based, mice (C57BL/6J); details: mouse islets; for insulin secretion, % of control group / activity at 400 µM / activity at 5000 µM: control = 100%; for activity at 400 µM / activity at 5000 µM: Mus musculus, read-out: insulin secretion, % of control group
Description: Langerhans' islet was isolated from the pancreas of male mice (C57BL/6J, 8 week old, purchased from Clea Japan, Inc.) and cultured according to the procedure of Experimental Example 3, and effect of 50 μM EPA alone (the group of palmitic acid plus EPA), 5 mM tolbutamide alone (the group of palmitic acid plus tolbutamide), and combined use of 50M EPA and 5 mM tolbutamide (the group of palmitic acid plus the combination) on the suppression of the insulin secretion stimulated with 20 mM glucose and the insulin secretion stimulated with 30 mM KCl induced by 0.4 mM palmitic acid were measured according to the procedure of Experimental Example 1. Amount of insulin per 1 ng DNA of the Langerhans' islet was evaluated according to the procedure of Experimental Example 3.

[3] = Blood (serum) free fatty acid in palmitic acid fed mice (Experimental Example 3); type: in vivo, mice (C57BL/6J); details: feed with 20% by weight tripalmitic acid, 28 days, vs control group
Excerpt: Male mice (C57BL/6J, 8 week old, purchased from Clea Japan, Inc.) were fed on fish meal free F1 (manufactured by Funabashi Farms Co., Ltd.) for 1 week, and the mice were divided into 4 groups each including 9 to 10 mice. The 4 groups of mice were freely fed for 28 days on (1) fish meal free F1 (control group), (2) fish meal free F1 containing 20% by weight of tripalmitic acid added (palmitic acid group), (3) F1 feed not containing any fish meal having 20% by weight of tripalmitic acid and 5% by weight of EPA-E added (the group of palmitic acid plus EPA), and (4) F1 feed not containing any fish meal having 5% by weight of EPA-E added (EPA group). Before the start of the experiment, on 14th day, and on the final day, blood was taken from orbital venous plexus after fasting for 16 hours. The serum was separated, and blood free fatty acid was enzymatically measured by using NEFA Test Wako (Wako Pure Chemical Industries, Ltd.). […] The glucose-stimulated insulin secretion was then evaluated according to the procedure described in Experimental Example 1-(2).

[4] = islets of mice fed 5% EPA-E alone 28 days
[5] = islets of mice fed 20% tripalmitic acid and 5% EPA-E 28 days
[6] = 0.4 mM palmitic acid plus 50 μM EPA, 5 mM tolbutamide or both, 20 mM glucose
[7] = 0.4 mM palmitic acid plus 50 μM EPA, 5 mM tolbutamide or both, 30 mM KCl
[8] = 0.4 mM palmitic acid plus 50 μM EPA, 5 mM tolbutamide or both, stimulated with 20 mM glucose
[9] = 0.4 mM palmitic acid plus 50 μM EPA, 5 mM tolbutamide or both, stimulated with 30 mM KCl
[10] = islets of mice fed 20% tripalmitic acid 28 days
[11] = then 48 h without fatty acid (control group)

With `CC/C=C\C/C=C\C/C=C\C/C=C\C/C=C\C/C=C\CCC(=O)O` [DHA, docosahexaenoic acid] the “insulin secretion (amount of insulin per mg of the protein)” value (Min6 cells; then 50 μM fatty acid 48 h) was 0.004073 mg and the “insulin secretion, % of normal group” value (Min6 cells; then 50 μM fatty acid 48 h) was 81.4%.
In the case of `CC/C=C\C/C=C\C/C=C\C/C=C\C/C=C\CCCC(=O)O` [EPA, eicosapentaenoic acid], the “insulin secretion (amount of insulin per μg of the DNA of the Langerhans' islet)” value [1, 4] is reported as 0.0089 µg, the “insulin secretion, % of control group” value [1, 4] is reported as 121% and the “insulin secretion (amount of insulin per μg of the DNA of the Langerhans' islet)” value [1, 5] is reported as 0.0082 µg. The “insulin secretion, % of control group” value [1, 5] was 111%, the “insulin secretion (amount of insulin per mg of the protein)” value ([2]; Min6, 50 μM EPA alone 48 h) was 0.003664 mg and the “insulin secretion, % of control group” value ([2]; Min6, 0.4 mM palmitic acid and 50 μM EPA 48 h, 20 mM glucose, control = 100%) was 54.6%. The “insulin secretion (amount of insulin per mg of the protein)” value ([2]; Min6, 0.4 mM palmitic acid and 50 μM EPA 48 h) was 0.002096 mg, the activity at 50 µM ([2]; Mus musculus, Min6, 50 μM EPA alone 48 h, 20 mM glucose, control = 100%, read-out: insulin secretion, % of control group) was 95.5% and the “insulin secretion (amount of insulin per mg of the protein)” value (Min6 cells; then 50 μM fatty acid 48 h) was 0.004278 mg. The “insulin secretion, % of normal group” value (Min6 cells; then 50 μM fatty acid 48 h) was 85.4%, the “insulin secretion, % of control group” value (Langerhans' islet; [6]) was 80.0% and the “insulin secretion, % of control group” value (Langerhans' islet; [7]) was 72.4%. The “insulin secretion (amount of insulin per 1 ng DNA of the Langerhans' islet)” value (Langerhans' islet; [8]) was 823 pg and the “insulin secretion (amount of insulin per 1 ng DNA of the Langerhans' islet)” value (Langerhans' islet; [9]) was 422 pg.
For `CCCCCCCC/C=C\CCCCCCCC(=O)O` [oleic acid], the “insulin secretion (amount of insulin per mg of the protein)” value (Min6 cells; then 50 μM fatty acid 48 h) was 0.000659 mg and the “insulin secretion, % of normal group” value (Min6 cells; then 50 μM fatty acid 48 h) was 13.2%.
With `CCCCCCCCCCCCCCCC(=O)O` [palmitic acid] the “insulin secretion (amount of insulin per μg of the DNA of the Langerhans' islet)” value [1, 10] was 0.0046 µg, the “insulin secretion, % of control group” value [1, 10] was 63% and the “serum free fatty acid concentration” value [3] was “increased more significantly with time”. The “insulin secretion (amount of insulin per mg of the protein)” value ([2]; Min6, 0.4 mM palmitic acid alone 48 h) was 0.00091 mg, the activity at 400 µM ([2]; Mus musculus, Min6, 0.4 mM palmitic acid alone 48 h, 20 mM glucose, control = 100%, read-out: insulin secretion, % of control group) was 23.7% and the “insulin secretion (amount of insulin per mg of the protein)” value (Min6 cells; then 50 μM fatty acid 48 h) was 0.000742 mg. The “insulin secretion, % of normal group” value (Min6 cells; then 50 μM fatty acid 48 h) was 14.8%, the “insulin secretion (amount of insulin per mg of the protein)” value (Min6 cells; [11]) was 0.002481 mg and the “insulin secretion, % of normal group” value (Min6 cells; [11]) was 49.6%. For the same compound, the activity at 400 µM (Langerhans' islet; 0.4 mM palmitic acid alone, 20 mM glucose) was 55.6%, the activity at 400 µM (Langerhans' islet; 0.4 mM palmitic acid alone, 30 mM KCl) was 39.3% and the “insulin secretion (amount of insulin per 1 ng DNA of the Langerhans' islet)” value (Langerhans' islet; 0.4 mM palmitic acid alone, stimulated with 20 mM glucose) was 572 pg. For the same compound, the “insulin secretion (amount of insulin per 1 ng DNA of the Langerhans' islet)” value (Langerhans' islet; 0.4 mM palmitic acid alone, stimulated with 30 mM KCl) was 229 pg.
For `CCCCNC(=O)NS(=O)(=O)c1ccc(C)cc1` [tolbutamide], the activity at 5000 µM (Langerhans' islet; [6]) was 65.4%, the activity at 5000 µM (Langerhans' islet; [7]) was 54.2% and the “insulin secretion (amount of insulin per 1 ng DNA of the Langerhans' islet)” value (Langerhans' islet; [8]) was 673 pg. For the same compound, the “insulin secretion (amount of insulin per 1 ng DNA of the Langerhans' islet)” value (Langerhans' islet; [9]) was 316 pg.
